Reference: US20030121068A1, “Vector encoding suicide and marker constructs” (priority 2001, published 2003)

How the values were obtained:
NIH 3T3 and CEM cells = experiment: MTS cytotoxicity assay of transduced cells in 5-FC; format: cell-based, murine fibroblasts (NIH 3T3); human T cells (CEM); settings: untransduced NIH 3T3 and CEM cells
Description: CD function was tested by cytotoxicity assays in which transduced cells are exposed to various concentrations of 5-FC in 96 well plates. Assays were initiated using 500 cells/well of NIH cells or 10,000 cells/well of CEM cells placed in culture with semi-log increasing concentrations of 5-FC for a period of 5 days. An MTS (Promega, Cell Titre 96; cat no. G5430, GI 11) colorimetric assay (based on the conversion of a tetrazolium dye to formazan) was utilized to quantitate the concentration of viable cells on day 5. The absorbance of UV light at a wavelength of 565 nm at a given concentration of 5-FC was used to calculate the LD50 using a μQuant plate reader (Bio Tek Instruments Inc.). The fusion constructs were tested alongside controls containing only the NGFR and the CD constructs.
We tested to determine if the CD construct remained functional in the fusion protein. Cells were incubated with varying concentrations of 5-FC in 96-well plates. After 5 days, MTS reagent was added as per manufacturers recommendations. The reaction involves a color change based on the number of viable cells as the tetrazolium dye changes to formazan. Absorption of UV light at 565 nm can then be used to assess viability (shown in FIG. 3 as percentage of viable cells). Untransduced cells are resistant to the effects of 5-FC. […]

[1] = Adverse effects of 5-FC injections in mice; format: in vivo, NOD/Scid mice; settings: 400 mg/kg, day 5 through 19, control mice injected with saline
Description: In order to determine whether genetically engineered CEM cells could be effectively eradicated in vivo, NOD/Scid mice were utilized. After being exposed to 150 rads of radiation on day 1, four groups of mice were injected with saline (control) or 5×10^6 engineered cells on day 2. The remaining three groups included non-CD containing group (LNGFRSN), E. coli fusion construct containing group (LNGCDeSN) and the Saccharomyces fusion construct-containing group (LNGCDsSN). The genetically engineered cells were suspended in PBS at a 5×10^6 cells/0.5 ml and injected via the tail vein. Commencing day 5 though day 19, the mice were injected with 5-FC (Sigma, cat no. F-7129, lot no. 110K4012) at 400 mg/kg using a stock solution of 12.5 mg/ml, prepared in normal saline. After two weeks of 5-FC treatment, the mice were followed to assess mortality within each group. A Kaplan Meyer analysis was performed to determine the effect of 5-FC treatment for each group. The experiment was continued for 100 days after initiation.
As expected, control mice injected with saline survived the duration of the experiment. […] This group serves as a second control against mice injected with CD containing fusion constructs. […]

With `Nc1nc(=O)[nH]cc1F` [5-FC, 5-fluorocytosine] the “effect of 5-FC on untransduced cells” value (NIH 3T3 and CEM cells) was “resistant” and the “adverse effects of 5-FC injections” value [1] was “No adverse effects”.
